# According to PubChem BioAssay AID2060912 (Molecular Pharmacology Branch, DTP, NCI, 2025):
# pIC50: −log10 of the molar value.
# Tested on: HUVEC/MSC spheroids viability
# Test: Human HUVEC/MSC cell line growth inhibition [KRAS2];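 on viability, T/C: percent of DMSO vehicle control luminescence so 100% = untreated viability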
# Conditions: for pIC50: curve of first compound; for viability, T/C: stronger effect = lower value
# In short: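 Stroma-only multicellular spheroids, formed from HUVEC and human MSCs at passages </=5, received RAS-pathway inhibitors with or without a second targeted drug. Dosing followed half-log dilutions from clinically achievable levels.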
# [1] = second compound 0.0316 µM, first compound 0.0316 µM
# [2] = second compound 0.0316 µM, first compound 0.1 µM
# [3] = second compound 0.0316 µM, first compound 0.316 µM
# [4] = second compound 0.0316 µM, first compound 1 µM
# [5] = second compound 0.0316 µM, first compound 3.16 µM
# [6] = second compound 0.0316 µM, first compound 10 µM
# [7] = second compound 0.1 µM, first compound 0.0316 µM
# [8] = second compound 0.1 µM, first compound 0.1 µM
# [9] = second compound 0.1 µM, first compound 0.316 µM
# [10] = second compound 0.1 µM, first compound 1 µM
# [11] = second compound 0.1 µM, first compound 3.16 µM
# [12] = second compound 0.1 µM, first compound 10 µM
# [13] = second compound 0.316 µM, first compound 0.0316 µM
# [14] = second compound 0.316 µM, first compound 0.1 µM
# [15] = second compound 0.316 µM, first compound 0.316 µM
# [16] = second compound 0.316 µM, first compound 1 µM
# [17] = second compound 0.316 µM, first compound 3.16 µM
# [18] = second compound 0.316 µM, first compound 10 µM
# [19] = second compound 1 µM, first compound 0.0316 µM
# [20] = second compound 1 µM, first compound 0.1 µM
# [21] = second compound 1 µM, first compound 0.316 µM
# [22] = second compound 1 µM, first compound 1 µM
# [23] = second compound 1 µM, first compound 3.16 µM
# [24] = second compound 1 µM, first compound 10 µM
# [25] = second compound 3.16 µM, first compound 0.0316 µM
# [26] = second compound 3.16 µM, first compound 0.1 µM
# [27] = second compound 3.16 µM, first compound 0.316 µM
# [28] = second compound 3.16 µM, first compound 1 µM
# [29] = second compound 3.16 µM, first compound 3.16 µM
# [30] = second compound 3.16 µM, first compound 10 µM
# [31] = second compound 10 µM, first compound 0.0316 µM
# [32] = second compound 10 µM, first compound 0.1 µM
# [33] = second compound 10 µM, first compound 0.316 µM
# [34] = second compound 10 µM, first compound 1 µM
# [35] = second compound 10 µM, first compound 3.16 µM
# [36] = second compound 10 µM, first compound 10 µM
compound,measurement,setting,value
CC(C)NCC(C(=O)N1CCN(c2ncnc3c2C(C)CC3O)CC1)c1ccc(Cl)cc1 (centres undefined) + C=CC(=O)N1CCN(c2nc(=O)n(-c3c(C)ccnc3C(C)C)c3nc(-c4c(O)cccc4F)c(F)cc23)C(C)C1,pIC50,second compound 0.0316 µM,< 5.00
same,pIC50,second compound 0.1 µM,< 5.00
same,pIC50,second compound 0.316 µM,< 5.00
same,pIC50,second compound 1 µM,< 5.00
same,pIC50,second compound 3.16 µM,< 5.00
same,pIC50,second compound 10 µM,< 5.00
same,"viability, T/C",[1],87.5%
same,"viability, T/C",[2],93.7%
same,"viability, T/C",[3],97.1%
same,"viability, T/C",[4],77.7%
same,"viability, T/C",[5],52.4%
same,"viability, T/C",[6],53.6%
same,"viability, T/C",[7],92.4%
same,"viability, T/C",[8],104%
same,"viability, T/C",[9],85.8%
same,"viability, T/C",[10],76.1%
same,"viability, T/C",[11],54.9%
same,"viability, T/C",[12],64.9%
same,"viability, T/C",[13],98.7%
same,"viability, T/C",[14],102%
same,"viability, T/C",[15],82.2%
same,"viability, T/C",[16],65.8%
same,"viability, T/C",[17],59.4%
same,"viability, T/C",[18],63.1%
same,"viability, T/C",[19],105%
same,"viability, T/C",[20],99.4%
same,"viability, T/C",[21],96.4%
same,"viability, T/C",[22],71.3%
same,"viability, T/C",[23],58%
same,"viability, T/C",[24],68.1%
same,"viability, T/C",[25],96.8%
same,"viability, T/C",[26],124%
same,"viability, T/C",[27],86.6%
same,"viability, T/C",[28],84.6%
same,"viability, T/C",[29],62.9%
same,"viability, T/C",[30],68.9%
same,"viability, T/C",[31],110%
same,"viability, T/C",[32],119%
same,"viability, T/C",[33],102%
same,"viability, T/C",[34],64.5%
same,"viability, T/C",[35],65%
same,"viability, T/C",[36],47.2%
COc1cc(Nc2ncc3c(n2)-c2ccc(Cl)cc2C(c2c(F)cccc2OC)=NC3)ccc1C(=O)O + C=CC(=O)N1CCN(c2nc(=O)n(-c3c(C)ccnc3C(C)C)c3nc(-c4c(O)cccc4F)c(F)cc23)C(C)C1,pIC50,second compound 0.0316 µM,< 5.00
same,pIC50,second compound 0.1 µM,< 5.00
same,pIC50,second compound 0.316 µM,< 5.00
same,pIC50,second compound 1 µM,< 5.00
same,pIC50,second compound 3.16 µM,< 5.00
same,pIC50,second compound 10 µM,< 5.00
same,"viability, T/C",[1],94.8%
same,"viability, T/C",[2],125%
same,"viability, T/C",[3],99%
same,"viability, T/C",[4],109%
same,"viability, T/C",[5],106%
same,"viability, T/C",[6],71.6%
same,"viability, T/C",[7],103%
same,"viability, T/C",[8],109%
same,"viability, T/C",[9],108%
same,"viability, T/C",[10],111%
same,"viability, T/C",[11],106%
same,"viability, T/C",[12],56.3%
same,"viability, T/C",[13],111%
same,"viability, T/C",[14],114%
same,"viability, T/C",[15],93.8%
same,"viability, T/C",[16],116%
same,"viability, T/C",[17],106%
same,"viability, T/C",[18],69.3%
same,"viability, T/C",[19],122%
same,"viability, T/C",[20],127%
same,"viability, T/C",[21],115%
same,"viability, T/C",[22],127%
same,"viability, T/C",[23],117%
same,"viability, T/C",[24],72.9%
same,"viability, T/C",[25],110%
same,"viability, T/C",[26],123%
same,"viability, T/C",[27],110%
same,"viability, T/C",[28],96.3%
same,"viability, T/C",[29],109%
same,"viability, T/C",[30],83.3%
same,"viability, T/C",[31],136%
same,"viability, T/C",[32],129%
same,"viability, T/C",[33],154%
same,"viability, T/C",[34],120%
same,"viability, T/C",[35],101%
same,"viability, T/C",[36],66.8%
Cn1ncnc1[C@H]1c2n[nH]c(=O)c3cc(F)cc(c23)N[C@@H]1c1ccc(F)cc1 + C=CC(=O)N1CCN(c2nc(OCC3CCCN3C)nc3c2CCN(c2cccc4cccc(C)c24)C3)CC1CC#N,pIC50,second compound 0.00949 µM,< 7.00
same,pIC50,second compound 0.03 µM,< 7.00
same,pIC50,second compound 0.0949 µM,< 7.00
same,pIC50,second compound 0.3 µM,< 7.00
same,pIC50,second compound 0.949 µM,< 7.00
same,pIC50,second compound 3 µM,< 7.00
same,"viability, T/C","second compound 0.00949 µM, first compound 0.000316 µM",88%
same,"viability, T/C","second compound 0.00949 µM, first compound 0.001 µM",103%
same,"viability, T/C","second compound 0.00949 µM, first compound 0.00316 µM",85.6%
same,"viability, T/C","second compound 0.00949 µM, first compound 0.01 µM",66.3%
same,"viability, T/C","second compound 0.00949 µM, first compound 0.0316 µM",84.8%
same,"viability, T/C","second compound 0.00949 µM, first compound 0.1 µM",85.2%
same,"viability, T/C","second compound 0.03 µM, first compound 0.000316 µM",96.5%
same,"viability, T/C","second compound 0.03 µM, first compound 0.001 µM",75.2%
same,"viability, T/C","second compound 0.03 µM, first compound 0.00316 µM",77.3%
same,"viability, T/C","second compound 0.03 µM, first compound 0.01 µM",77.9%
same,"viability, T/C","second compound 0.03 µM, first compound 0.0316 µM",95.6%
same,"viability, T/C","second compound 0.03 µM, first compound 0.1 µM",86.4%
same,"viability, T/C","second compound 0.0949 µM, first compound 0.000316 µM",86.7%
same,"viability, T/C","second compound 0.0949 µM, first compound 0.001 µM",100%
same,"viability, T/C","second compound 0.0949 µM, first compound 0.00316 µM",75%
same,"viability, T/C","second compound 0.0949 µM, first compound 0.01 µM",81.2%
same,"viability, T/C","second compound 0.0949 µM, first compound 0.0316 µM",82.6%
same,"viability, T/C","second compound 0.0949 µM, first compound 0.1 µM",78.6%
same,"viability, T/C","second compound 0.3 µM, first compound 0.000316 µM",78.3%
same,"viability, T/C","second compound 0.3 µM, first compound 0.001 µM",90.9%
same,"viability, T/C","second compound 0.3 µM, first compound 0.00316 µM",75.7%
same,"viability, T/C","second compound 0.3 µM, first compound 0.01 µM",71.9%
same,"viability, T/C","second compound 0.3 µM, first compound 0.0316 µM",72.7%
same,"viability, T/C","second compound 0.3 µM, first compound 0.1 µM",86.2%
same,"viability, T/C","second compound 0.949 µM, first compound 0.000316 µM",61.8%
same,"viability, T/C","second compound 0.949 µM, first compound 0.001 µM",74.2%
same,"viability, T/C","second compound 0.949 µM, first compound 0.00316 µM",78.8%
same,"viability, T/C","second compound 0.949 µM, first compound 0.01 µM",65.7%
same,"viability, T/C","second compound 0.949 µM, first compound 0.0316 µM",74.9%
same,"viability, T/C","second compound 0.949 µM, first compound 0.1 µM",63.1%
same,"viability, T/C","second compound 3 µM, first compound 0.000316 µM",96.7%
same,"viability, T/C","second compound 3 µM, first compound 0.001 µM",80.2%
same,"viability, T/C","second compound 3 µM, first compound 0.00316 µM",88.3%
same,"viability, T/C","second compound 3 µM, first compound 0.01 µM",88.5%
same,"viability, T/C","second compound 3 µM, first compound 0.0316 µM",77.6%
same,"viability, T/C","second compound 3 µM, first compound 0.1 µM",83.9%
COc1cc2nccc(Oc3ccc(NC(=O)C4(C(=O)Nc5ccc(F)cc5)CC4)cc3)c2cc1OC,"viability, T/C",compound 0.0316 µM,76.8% [middle of 5 runs]
same,"viability, T/C",compound 0.1 µM,79% [middle of 5 runs]
same,"viability, T/C",compound 0.316 µM,70.8% [middle of 5 runs]
same,"viability, T/C",compound 1 µM,71.4% [middle of 5 runs]
same,"viability, T/C",compound 10 µM,36% [middle of 5 runs]
same,IC50,curve of compound,6.87 µM [middle of 5 runs]
O=C(c1cc(Cc2n[nH]c(=O)c3ccccc23)ccc1F)N1CCN(C(=O)C2CC2)CC1 + CNCc1ccccc1-c1csc(C(C)Nc2nc(C)nc3cc(OC)c(OC)cc23)c1,pIC50,second compound 0.0316 µM,< 5.00
same,pIC50,second compound 0.1 µM,< 5.00
same,pIC50,second compound 0.316 µM,< 5.00
same,pIC50,second compound 1 µM,< 5.00
same,pIC50,second compound 3.16 µM,< 5.00
same,pIC50,second compound 10 µM,> 7.50
same,"viability, T/C",[1],95.6%
same,"viability, T/C",[2],92.6%
same,"viability, T/C",[3],93.1%
same,"viability, T/C",[4],84.2%
same,"viability, T/C",[5],80.3%
same,"viability, T/C",[6],72%
same,"viability, T/C",[7],87.1%
same,"viability, T/C",[8],91.4%
same,"viability, T/C",[9],92.1%
same,"viability, T/C",[10],78.2%
same,"viability, T/C",[11],81.9%
same,"viability, T/C",[12],96%
same,"viability, T/C",[13],84.6%
same,"viability, T/C",[14],92.2%
same,"viability, T/C",[15],76.7%
same,"viability, T/C",[16],92.3%
same,"viability, T/C",[17],89.8%
same,"viability, T/C",[18],93.9%
same,"viability, T/C",[19],70%
same,"viability, T/C",[20],84.7%
same,"viability, T/C",[21],85.5%
same,"viability, T/C",[22],81.1%
same,"viability, T/C",[23],78%
same,"viability, T/C",[24],104%
same,"viability, T/C",[25],95.7%
same,"viability, T/C",[26],87.8%
same,"viability, T/C",[27],98.2%
same,"viability, T/C",[28],105%
same,"viability, T/C",[29],92.3%
same,"viability, T/C",[30],95.8%
same,"viability, T/C",[31],0.39%
same,"viability, T/C",[32],0.43%
same,"viability, T/C",[33],0.37%
same,"viability, T/C",[34],0.34%
same,"viability, T/C",[35],0.39%
same,"viability, T/C",[36],0.41%
